In one series the test system is Microglial cells. Put plainly: Microchemotaxis assay (Boyden chamber): chemotaxis and motility. In kind it is cell-based, mouse. As for the experimental part:
Microchemotaxis assay. The effect of the compound on directed migration and general motility was tested using a 48-well microchemotaxis Boyden chamber (Neuroprobe, Gaithersburg, USA). Upper and lower wells were separated by polycarbonate filter (8 μm pore size; Poretics). Microglial cells (2-4×10^4 cells) in 50 μl plain medium were added to the upper compartment. In addition, 2.5 μM of compound in DMSO, 125×10-5 v/v DMSO respectively, and/or 100 μM ATP were added to the upper and/or lower chamber, as shown in FIG. 3A. Plain medium was used as a control. The chamber was incubated at 37° C. and 5% CO2 for 6 h. Cells remaining on the upper surface of the membrane were removed by wiping, and cells in the lower compartment were fixed in methanol for 10 min and subjected to Diff-Quik stain (Medion Grifols Diagnostics AG, Dudingen, Switzerland). The rate of microglial migration was calculated by counting cells in four random fields of each well using a 20×bright-field objective. All data were normalised to ATP induced chemotaxis.

In series [1] the test system is primary cultured microglial cells. Put plainly: Flow cytometry-based phagocytosis assay. The settings on record: 2.5 μM C1. In kind it is cell-based, mouse. As for the experimental part:
Flow cytometry-based phagocytosis assay. 10^6 primary cultured microglial cells were seeded into 3.5 cm dishes in plain medium overnight at standard conditions. The cells were treated for 1 hour with 2.5 μM C1 in DMSO, 125×10^−5 v/v DMSO respectively, or plain medium only. To stimulate microglia, LPS (1 μg/ml) was added for additional 24 hours. Fluoresbrite Carboxylate Microspheres (BrightBlue, 4.5 μm, Polyscience, Niles, USA) were coated with fetal calf serum for 30 min at room temperature, and subsequently centrifuged at 3000 g for 2 min at room temperature. The beads were resuspended in HBSS at a final concentration of 2×10^6 beads per ml. The microglia culture was washed once with HBSS (37° C.) before 1 ml bead solution was applied. The cells were incubated with the beads for 30 min at 37° C. Afterwards, microglia were washed twice with ice cold HBSS, scratched off and pulled down at 500 g for 5 min. The cells were resuspended in a propidium iodide solution (1:200 in HBSS) to stain dead cells. The stained cells were transferred to a BD LSRFortessa Flow cytometer (BD Bioscience, Sparks, USA). The median intensity of the bright blue beads was calculated using Flowlo v10 software (Ashland, USA). The data of each experiment was normalised to the unstimulated media control.

The test system of the next series is iNOS mRNA. Description: Quantitative PCR of iNOS mRNA in microglia. In kind it is cell-based, mouse. The settings on record: 2.5 μM C1. As for the experimental part:
Quantitative PCR. The same stimulation protocol as for the Flow cytometry-based phagocytosis assay was applied. Cells were seeded overnight, treated with 2.5 μM C1 in DMSO, 125×10^−5 v/v DMSO respectively, or plain medium only for 1 hour, followed by an additional stimulation with 1 μg/ml LPS for 24 hours. Total RNA was isolated using the RNeasy Plus Mini Kit (Qiagen, Hilden, Germany). On-column DNase 1 (Qiagen) digestion was performed and total RNA was eluted in RNase-free water. RNA yield was measured using a Nanodrop 1000 (Thermo Fisher Scientific) spectrophotometer and quality was assessed using an Agilent 2100 Bioanalyzer (Agilent, Santa Clara, USA). Samples were stored at −80° C. until further use. First-strand cDNA synthesis was done with the SuperScript II reverse transcriptase (Thermo Fisher Scientific) using oligo-dT primers12-18 (Invitrogen) according to the manufacturer's instructions. Quantitative real-time PCR (qRT PCR) reactions were performed in a 7500 Fast Real-Time thermocycler (Thermo Fisher Scientific) using the SYBR Select Master Mix (Thermo Fisher Scientific) according to the manufacturer's instructions. cDNA input ranged between 1 and 5 ng/μl of total RNA transcribed into cDNA. The expression results were normalized to the expression of PActin of the same sample.

Series [2] relates to primary cultured neonatal astrocytes. Put plainly: AlamarBlue assay in astrocytes. The format is cell-based. Particulars: 2.5 μM C1, 48 hours, unstimulated. How it is done: Primary cultured neonatal astrocytes. The preparation of primary cultured neonatal astrocytes followed the preparation of the primary cultured neonatal microglia, described above. After the third shake off, the remaining astrocytes were trypsinated, washed with PBS and seeded into a 96 well plate (10 000 cells/well, 200 μL medium per well).
AlamarBlue assay. Cells were seeded according to the protocols described above, after compounds and stimuli were added, the cells were washed once with HBSS (37° C.) and 100 μl of a 1:10 AlamarBlue (Thermo Fisher Scientific) dilution in plain medium was added. The conversion of resazurin to resorufin was measured by absorbance (absorbance wavelength of 570 nm and a reference wavelength of 600 nm) after 3 hours.
The inventors evaluated the metabolic activity, proliferation and cell death of primary cultured neonatal microglia, primary cultured neonatal astrocytes and the oligodendrocyte cell line OLN-93 under physiological conditions. All cells were treated with 2.5 μM C1 in DMSO or the corresponding DMSO concentration (125×10-5 v/v) for 48 hours without any additional stimulation followed by either an AlamarBlue assay to measure the metabolic activity, or an propidium iodide based proliferation and cell death assay. The data of the AlamarBlue assay and proliferation assay were normalised to the plain medium control. […]
(In general: Alamar Blue is a resazurin reagent that responds to reducing activity.)

Entries after “also recorded” stand apart in the source; their conditions may differ.

Turning to `COc1ccc(NC(=O)C(NC(=O)C2CCCN2C(=O)OCc2ccccc2)c2ccc(OC)cc2)cc1` (stereo not drawn) [C1], the ATP induced motility result with Microglial cells (2.5 μM C1, 100 μM ATP) is reported as “neither changed; also recorded: not altered”. In addition, the microglial motility result with Microglial cells (2.5 μM C1 on both sides of the chamber) is on record as “reduced in the presence of C1 significantly compared to plain medium (p=0.0018) but not to DMSO; also recorded: did not significantly affect motility compared to the DMSO control, however it did, when compared to the plain medium control”. Further, the “chemotaxis (cells migrating towards C1)” value in the series with Microglial cells (gradient of 2.5 μM C1, 6 h) was “increased chemotaxis significantly; also recorded: significantly higher”. Also, in series [1], the “phagocytic activity, basal conditions” value is reported as “neither C1 nor DMSO changes microglial phagocytosis significantly; also recorded: did not alter”. Further, in series [1] (1 μg/mL LPS 24 hours), the “increase of phagocytosis upon LPS compared to own unstimulated control” value is reported as “+45%” and the “phagocytic activity, LPS stimulated conditions” value is given as “no significant differences; also recorded: did not alter”. Besides, in the series on iNOS mRNA, the “iNOS mRNA level, basal conditions” value is recorded as “no significant effect; also recorded: did not change”. Also, the “iNOS mRNA level after LPS stimulation” value with iNOS mRNA (1 μg/ml LPS 24 hours) is reported as “did not change mRNA significantly”. Further, the “metabolic activity of astrocytes” value in series [2] is on record as “no influence; also recorded: not affected”.

The values are drawn from US20240025849A1 (MAX DELBRÜCK-CENTRUM FÜR MOLEKULARE MEDIZIN IN DER …, priority 2020, published 2024).
